Laboratory results as given in paper PMC12654037, “Norditerpene Natural Products from Subterranean Fungi with Anti-Parasitic Activity” (Microorganisms, 2025).

How the values were obtained:
[1] = Serum biochemical analysis of infected and treated IFNγ −/− mice; type: in vivo, C57BL/6 IFNγ −/− mice
Experimental: (§1) Inhibition of C. parvum infection in IFN-gamma knock-out (IFNγ −/−) mice: Twelve female C57BL/6 IFNγ −/− mice (4 weeks old) from the Jackson Laboratory were housed in a controlled environment with a 12 h light/dark cycle and access to food and water ad libitum. Cp-NLuc oocysts were isolated from infected mouse feces and purified using a sodium chloride density gradient. Mice were inoculated via oral gavage with a suspension of 10^4 oocysts in 50 µL sterile PBS. On days 5 and 6 post-infection, mice were treated with 4 mg/kg of oidiolactone A or DMSO vehicle control every 12 h for a total of four doses (6 mice per treatment group). Fecal samples were collected daily and stored at −20 °C until analysis. Feces were homogenized in a lysis buffer solution, centrifuged, and the supernatant was incubated with Nano-Glo® substrate in a 96-well plate, as previously described. Luminescence was measured in a microplate reader immediately after substrate addition. Oocyst shedding, measured in RLUs/gram of feces, was plotted over time, and the area under the curve was determined for each mouse. Mice were sacrificed 14 days post-infection, and serum was collected for biochemical analysis. Biochemical analyses were performed using the Beckman Coulter AU480 automated analyzer (Beckman Coulter, Brea, CA, USA) at the Clinical Pathology Laboratory, Veterinary Medical Center, University of Minnesota.

Cp-NLuc = assay: C. parvum -static versus -cidal washout assay; type: cell-based, Cryptosporidium parvum
Experimental: To determine -static versus -cidal activity, the infection assay was conducted as described, but infected cells were treated with compounds for 30 min up to 24 h. The compounds were removed after the designated times, and infection was quantified at 72 h post-infection. To determine the activity of the compounds against asexual and sexual stages of the parasite, compounds were added for 4 h windows at times corresponding to asexual or sexual development. Parasite proliferation was then determined at 72 h post-infection. For all assays, each sample was run in triplicate, and three biological replicates were performed.

C. parvum = assay: Inhibition of C. parvum infection in IFNγ −/− mice; type: in vivo, C57BL/6 IFNγ −/− mice; conditions: 4 mg/kg oral gavage every 12 h, four doses, days 5 and 6 post-infection, AUC of RLUs/gram feces
Experimental: as §1

[2] = PAMPA membrane permeability assay; type: in vitro ADME
Experimental: PAMPA membrane permeability assay. The membrane permeability of selected compounds was evaluated using the Corning® BioCoat^TM Pre-coated PAMPA Plate System (catalog. No. 353015, Corning, Glendale, AZ, USA). The pre-coated plate assembly, which was stored at −20 °C, was thawed for 30 min at room temperature. The permeability assay was carried out in accordance with the manufacturer’s protocol. Briefly, the 96-well filter plate, pre-coated with lipids, was used as the permeation acceptor and a matching 96-well receiver plate was used as the permeation donor. […] At the end of the incubation, the plate was separated, and the final concentrations of compounds in both donor wells and acceptor wells were analyzed using LC-MS/MS. Permeability of the compounds was calculated using Equation (1): Pe = {−ln [1 − CA(t)/Ceq]}/[A × (1/VD + 1/VA) × t](1) where A = filter area (0.3 cm^2), VD = donor well volume (0.3 mL), VA = acceptor well volume (0.2 mL), t = incubation time (seconds), CA(t) = compound concentration in acceptor well at time t, and CD(t) = compound concentration in donor well at time t. Ceq was calculated using Equation (2): Ceq = [CD(t) × VD + CA(t) × VA]/(VD + VA)(2) […]

P. falciparum line Dd2 = assay: Plasmodium falciparum growth inhibition assay (SYBR Green I), Dd2
Experimental: Plasmodium falciparum growth inhibition assay: Antiplasmodial EC50 results were determined using a fluorescence-based SYBR Green I assay performed using asynchronous cultures [30, 35]. […] Plates were subsequently frozen at −80 °C to facilitate lysis. […] Relative fluorescence units (RFUs) were normalized based on chloroquine-treated and no treatment controls. Serial dilutions of compounds were prepared in RPMI with final assay conditions of ≤0.2% DMSO. Each assay was conducted in triplicate with three biological replicates.

[3] = Microsomal stability assay, human; conditions: microsomes, pH 7.4
Experimental: Microsomal stability assay. The in vitro microsomal stability assay was conducted in duplicate in commercially available mouse or human liver microsomes (Sekisui XenoTech, Kansas City, KS, USA), which were supplemented with nicotinamide adenine dinucleotide phosphate (NADPH) as a cofactor. […] The reaction was initiated by the addition of 1 mmol/L NADPH, followed by incubation at 37 °C. A negative control was performed in parallel without NADPH to reveal any chemical instability or non-NADPH dependent enzymatic degradation for each compound. […] At various time points (0, 5, 15, 30, and 60 min), a 40 µL of reaction aliquot was taken and quenched with 120 µL of acetonitrile containing 0.1% formic acid. The samples were then vortexed and centrifuged at 15,000 rpm for 5 min at 4 °C. The supernatants were collected and analyzed by LC-MS/MS to determine the in vitro metabolic half-life (t1/2).

HuF fibroblast cell line = conditions: cited from earlier work

CO[C@H]1OC(=O)C=C2[C@@]13O[C@@H]3[C@H]1OC(=O)[C@@]3(C)CCC[C@@]2(C)[C@@H]13 [compound 1, oidiolactone A]
signs of acute toxicity (liver, renal, metabolic, cardiac functions, protein status, electrolytes vs control) ([1]; 4 mg/kg x 4 doses, serum day 14): no statistically significant differences | LIH (sum of lipemia, icterus, and hemolysis scores per mouse) ([1]; serum, mean ± SD): 1.5 ± 0.71 | ALP ([1]; serum, mean ± SD of two mice): 182.00 ± 15.56 U/L | ALT ([1]; serum, mean ± SD of two mice): 37.50 ± 6.36 U/L | AST ([1]; serum, mean ± SD of two mice): 229.50 ± 31.82 U/L | Alb ([1]; serum, mean ± SD of two mice): 3.30 ± 0.14 g/dL | Amy ([1]; serum, mean ± SD of two mice): 456.00 ± 80.61 U/L | An Gap (calc.) ([1]; serum, mean ± SD of two mice): 27.00 ± 1.41 | BUN ([1]; serum, mean ± SD of two mice): 21.50 ± 4.95 mg/dL | CK ([1]; serum, mean ± SD of two mice): 1618.00 ± 376.18 U/L | Ca ([1]; serum, mean ± SD of two mice): 10.55 ± 0.07 mg/dL | Chol ([1]; serum, mean ± SD of two mice): 92.50 ± 7.78 mg/dL | Creat ([1]; serum, mean ± SD of two mice): 0.00 ± 0.00 mg/dL | GGT ([1]; serum, mean ± SD of two mice): 0.00 ± 0.00 U/L | Glob (calc.) ([1]; serum, mean ± SD of two mice): 1.55 ± 0.07 g/dL | Gluc ([1]; serum, mean ± SD of two mice): 280.00 ± 15.56 mg/dL | HCO3 ([1]; serum, mean ± SD of two mice): 14.85 ± 1.48 mmol/L | K ([1]; serum, mean ± SD of two mice): 5.15 ± 0.07 mmol/L | Mg ([1]; serum, mean ± SD of two mice): 2.75 ± 0.07 mg/dL | Na ([1]; serum, mean ± SD of two mice): 149.50 ± 0.71 mmol/L | Osmol (calc.) ([1]; serum, mean ± SD of two mice): 310.00 ± 1.41 | Phos ([1]; serum, mean ± SD of two mice): 10.25 ± 0.35 mg/dL | T. Bili ([1]; serum, mean ± SD of two mice): 0.10 ± 0.00 mg/dL | TP ([1]; serum, mean ± SD of two mice): 4.85 ± 0.21 g/dL | EC90 (Cp-NLuc; Cryptosporidium parvum): 7.5 µM | treatment time after which C. parvum did not recover (killing time) (Cp-NLuc; at EC90 7.5 µM, compound washed out, read 72 h post-infection): 8 to 12 h | reduction in C. parvum oocyst shedding (C. parvum): 70% | Papp at 5 h, 100 μmol/L ([2]; PAMPA, 25 °C, 5 h, 100 μmol/L, read-out: PAMPA Pe): 11 ± 1.3 ×10⁻⁶ cm/s | PAMPA permeability class ([2]; cutoff Pe 1.5 × 10^−6 cm/s): high passive permeability | SI: selectivity index=EC50 HepG2/ EC50 compound (P. falciparum line Dd2): > 11 | EC50 (P. falciparum line Dd2; Plasmodium falciparum, DD2, 72 h, read-out: EC50 Dd2 (M)): 2.26e-06 ± 4.6e-07 M | half-life at 1 µmol/L [3]: 5.29 ± 0.278 h | cytotoxicity against human fibroblast (HuF fibroblast cell line): no cytotoxicity observed | TC50 HuF (sub-confluent) (HuF fibroblast cell line; sub-confluent, ref Rusman et al. 2020 [25]): > 30 µM
